Laboratory results as given in paper PMC4505424, “A Novel Mechanism for Binding of Galactose-terminated Glycans by the C-type Carbohydrate Recognition Domain in Blood Dendritic Cell Antigen 2” (The Journal of Biological Chemistry, 2015).

Legend:
[1] = target: T1, BDCA-2 CRD (blood dendritic cell antigen 2) (Homo sapiens, UniProt Q8WTT0); assay: solid-phase competition with […]-Man-BSA on immobilised CRD; format: binding; details: half-maximal inhibition, Ca2+-dependent
T1 construct: gene CLEC4C; extracellular C-type carbohydrate recognition domain; expected mass of CRD 17,100; monomer
T1 sequence (Q8WTT0 67-213): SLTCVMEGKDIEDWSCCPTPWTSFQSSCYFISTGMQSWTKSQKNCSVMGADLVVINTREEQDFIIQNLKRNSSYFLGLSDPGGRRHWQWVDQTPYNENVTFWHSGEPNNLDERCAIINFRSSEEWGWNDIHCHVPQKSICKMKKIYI

[2] = target: T1, BDCA-2 CRD (blood dendritic cell antigen 2); assay: as above; format: binding; details: half-maximal inhibition; Ca2+-dependent

Row | SMILES | Ki [1] | KI relative to KI for α-methyl mannoside [2] | also measured
1 | CC(=O)N[C@H]1[C@H](O[C@H]2[C@H](O)[C@@H](NC(C)=O)C(O)O[C@@H]2CO)O[C@H](CO)[C@@H](O[C@@H]2O[C@H](CO[C@H]3O[C@H](CO)[C@@H](O)[C@H](O)[C@@H]3O[C@@H]3O[C@H](CO)[C@@H](O[C@@H]4O[C@H](CO[C@]5(C(=O)O)C[C@H](O)[C@@H](NC(C)=O)[C@H]([C@H](O)[C@H](O)CO)O5)[C@H](O)[C@H](O)[C@H]4O)[C@H](O)[C@H]3NC(C)=O)[C@@H](O)[C@H](O[C@H]3O[C@H](CO)[C@@H](O)[C@H](O)[C@@H]3O[C@@H]3O[C@H](CO)[C@@H](O[C@@H]4O[C@H](CO[C@]5(C(=O)O)C[C@H](O)[C@@H](NC(C)=O)[C@H]([C@H](O)[C@H](O)CO)O5)[C@H](O)[C@H](O)[C@H]4O)[C@H](O)[C@H]3NC(C)=O)[C@@H]2O)[C@@H]1O (some centres unmarked) [disialylated oligosaccharide] | 320 ± 20 µM | – | –
2 | CO[C@H]1O[C@H](CO)[C@@H](O)[C@H](O)[C@H]1NC(C)=O [GlcNAc (α-methyl glycoside)] | – | including glucose and GlcNAc, as well as L-fucose, also compete for binding | –
3 | CC(=O)N[C@H]1[C@H](O[C@@H]2C(O)O[C@H](CO)[C@@H](O)[C@@H]2O)O[C@H](CO)[C@@H](O[C@@H]2O[C@H](CO)[C@H](O)[C@H](O)[C@H]2O)[C@@H]1O (some centres unmarked) [Galβ1–4GlcNAcβ1–2Man] | – | – | Ki ([1]; extended site, mannose at Ca2+): 9.2 ± 1.4 µM
4 | CC(=O)N[C@H]1[C@H](O[C@H]2[C@H](O)[C@@H](NC(C)=O)C(O)O[C@@H]2CO)O[C@H](CO)[C@@H](O[C@@H]2O[C@H](CO[C@H]3O[C@H](CO)[C@@H](O)[C@H](O)[C@@H]3O[C@@H]3O[C@H](CO)[C@@H](O[C@@H]4O[C@H](CO)[C@H](O)[C@H](O)[C@H]4O)[C@H](O)[C@H]3NC(C)=O)[C@@H](O)[C@H](O[C@H]3O[C@H](CO)[C@@H](O)[C@H](O)[C@@H]3O[C@@H]3O[C@H](CO)[C@@H](O[C@@H]4O[C@H](CO)[C@H](O)[C@H](O)[C@H]4O)[C@H](O)[C@H]3NC(C)=O)[C@@H]2O)[C@@H]1O (some centres unmarked) [asialo biantennary glycan] | 0.46 ± 0.01 µM | – | –
5 | CO[C@H]1O[C@H](CO)[C@@H](O)[C@H](O)[C@H]1O [glucose (α-methyl glycoside)] | – | including glucose and GlcNAc, as well as L-fucose, also compete for binding | –
6 | CO[C@H]1O[C@H](CO)[C@H](O)[C@H](O)[C@H]1O [galactose (α-methyl glycoside)] | – | Comparison of mannose and galactose as competing ligands confirmed the affinity chromatography results | –
7 | CC(=O)N[C@H]1[C@H](O[C@@H]2C(O)O[C@H](CO)[C@@H](O)[C@@H]2O)O[C@H](CO)[C@@H](O)[C@@H]1O (some centres unmarked) [GlcNAcβ1–2Man] | 92 ± 12 µM | – | –
8 | CO[C@@H]1O[C@@H](C)[C@@H](O)[C@@H](O)[C@@H]1O [L-fucose (α-methyl glycoside)] | – | including glucose and GlcNAc, as well as L-fucose, also compete for binding | –
